Experimental data from US8044236B2, “Carboxilic acid derivatives” (Institute of Medicinal Molecular Design, Inc., priority 2006, dated 2011).
Structures can show the parent of a compound that is named as a salt.

Biological target: recombinant human PAI-1 (Homo sapiens, UniProt P05121)
Assay: Test Example 1: human PAI-1 inhibitory activity (tPA fluorogenic substrate, pH7.5 Tris buffer)
Format: biochemical
Design: purchased Molecular Innovations, Inc
Conditions: for Inhibition Rate of Human PAI-1 Activity (%): Tris buffer pH7.5
[1] = pH 7.5, read-out: Inhibition Rate of Human PAI-1 Activity (%)

Chain of recombinant human PAI-1 (P05121 24-402): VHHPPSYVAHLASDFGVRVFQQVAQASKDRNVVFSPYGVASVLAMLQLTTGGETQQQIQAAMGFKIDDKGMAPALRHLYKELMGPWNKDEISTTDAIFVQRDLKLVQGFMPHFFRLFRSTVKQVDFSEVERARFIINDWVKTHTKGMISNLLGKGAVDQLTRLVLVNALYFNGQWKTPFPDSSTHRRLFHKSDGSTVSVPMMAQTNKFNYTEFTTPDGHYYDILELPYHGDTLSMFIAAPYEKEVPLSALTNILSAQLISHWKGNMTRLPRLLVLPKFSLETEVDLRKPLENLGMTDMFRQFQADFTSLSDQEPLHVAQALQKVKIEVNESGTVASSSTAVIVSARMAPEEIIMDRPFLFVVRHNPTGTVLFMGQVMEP
Procedure: In a 96-well multiplate (black), 1.5 μl of DMSO solution of the present application compound prepared to achieve 80-fold the test concentration (=the final concentration when fluorogenic substrate is added) was diluted with 52.5 μl of pH7.5 Tris buffer. […] Furthermore, 30 μl of 800 IU/ml two-chain tPA (Activity Standard; American diagnostics, inc.) prepared by Tris buffer was added, and the mixed solution was incubated for 15 minutes at room temperature. To this, 30 μl of 400 μM fluorogenic substrate (Pyr-Gly-Arg-MCA; Peptide Institute, Inc.) for tPA prepared by Tris buffer was added and reacted for 30 minutes at room temperature.
<Composition of pH7.5 Tris Buffer)

Row | SMILES | Inhibition Rate of Human PAI-1 Activity (%) (compound 5 μM) | Inhibition Rate of Human PAI-1 Activity (%) (compound 10 μM) | Inhibition Rate of Human PAI-1 Activity (%) (compound 25 μM) | inhibition at 5 µM [1] [%] | inhibition at 10 µM [1] [%]
1 | O=C(O)Cc1cc(-c2ccc(OC(F)(F)F)cc2)ccc1OCc1ccccc1 [Compound 1, [4-benzyloxy-4′-(trifluoromethoxy)biphenyl-3-yl]acetic acid] | 18 | 31 |  |  | 
2 | O=C(O)/C=C/c1cc(-c2ccc(OC(F)(F)F)cc2)ccc1OCc1ccccc1 [Compound 2, (E)-3-[4-benzyloxy-4′-(trifluoromethoxy)biphenyl-3-yl]propenoic acid] |  |  |  | 35 | 31
3 | O=C(O)CCc1cc(-c2ccc(OC(F)(F)F)cc2)ccc1OCc1ccccc1 [Compound 3, 3-[4-benzyloxy-4′-(trifluoromethoxy)biphenyl-3-yl]propanoic acid] | 35 | 68 |  |  | 
4 | O=C(O)CCc1cc(-c2ccc(OC(F)(F)F)cc2)ccc1Oc1ccc(C(=O)O)cc1 [Compound 15, 3-[4-(4-carboxyphenoxy)-4′-(trifluoromethoxy)biphenyl-3-yl]propanoic acid] |  | 3 |  |  | 
5 | COc1ccccc1COc1ccc(-c2ccc(OC(F)(F)F)cc2)cc1CCC(=O)O [Compound 28, 3-[4-(2-methoxybenzyloxy)-4′-(trifluoromethoxy)biphenyl-3-yl]propanoic acid] |  | 7 | 47 |  | 
6 | O=C(O)/C=C\c1cc(-c2ccc(OC(F)(F)F)cc2)ccc1OCc1ccccc1 [Compound 29, (Z)-3-[4-benzyloxy-4′-(trifluoromethoxy)biphenyl-3-yl]propenoic acid] |  | 11 | 64 |  | 
7 | CC(C)(C)c1ccc(COc2ccc(-c3cccc(C(=O)O)c3)cc2CCC(=O)O)cc1 [Compound 31, 3-{4-[4-(tert-butyl)benzyloxy]-3′-carboxybiphenyl-3-yl}propanoic acid] |  | 9 | 25 |  | 

Now from value to compound, other results behind:

Row | Inhibition Rate of Human PAI-1 Activity (%) (compound 5 μM) | Inhibition Rate of Human PAI-1 Activity (%) (compound 10 μM) | Inhibition Rate of Human PAI-1 Activity (%) (compound 25 μM) | SMILES | inhibition at 5 µM [1] [%] | inhibition at 10 µM [1] [%]
8 | 84 | 78 |  | CC(C)(C)c1ccc(COc2ccc(-c3ccc(OC(F)(F)F)cc3)cc2/C=C/C(=O)O)cc1 [Compound 4, (E)-3-{4-[4-(tert-butyl)benzyloxy]-4′-(trifluoromethoxy)biphenyl-3-yl}propenoic acid] |  | 
9 | 83 | 94 |  | CC(C)(C)c1ccc(COc2ccc(-c3ccc(OC(F)(F)F)cc3)cc2NC(=O)C(=O)O)cc1 [Compound 6, N-{4-[4-(tert-butyl)benzyloxy]-4′-(trifluoromethoxy)biphenyl-3-yl}oxamic acid sodium salt] |  | 
10 | 92 | 94 |  | CC(C)(C)c1ccc(Oc2ccc(-c3ccc(OC(F)(F)F)cc3)cc2/C=C\C(=O)O)cc1 [Compound 12, (Z)-3-{4-[4-(tert-butyl)phenoxy]-4′-(trifluoromethoxy)biphenyl-3-yl}propenoic acid] |  | 
11 | 37 | 67 | 97 | CN(C(=O)C(=O)O)c1cc(-c2ccc(OC(F)(F)F)cc2)ccc1OCc1ccc(C(C)(C)C)cc1 [Compound 18, N-{4-[4-(tert-butyl)benzyloxy]-4′-(trifluoromethoxy)biphenyl-3-yl}-N-methyloxamic acid] |  | 
12 |  | 13 | 80 | O=C(O)CCc1cc(-c2ccc(OC(F)(F)F)cc2)ccc1OCc1ccc(C(F)(F)F)cc1 [Compound 26, 3-{4′-(trifluoromethoxy)-4-[4-(trifluoromethyl)benzyloxy]biphenyl-3-yl}propanoic acid] |  | 
13 | 96 | 97 | 93 | CC(C)(C)c1ccc(COc2ccc(-c3ccc(OC(F)(F)F)cc3)cc2/C=C\C(=O)O)cc1 [Compound 30, (Z)-3-{4-[4-(tert-butyl)benzyloxy]-4′-(trifluoromethoxy)biphenyl-3-yl}propenoic acid] |  | 
